# Experimental data published in US20110275518A1 (priority 2007, published 2011).
# Entries after “also recorded” stand apart in the source; their conditions may differ.
# Legend:
# [1] = prior art teaching; cited from earlier work
# healthy dry bean seed = assay: Germination of healthy dry bean seed; assay type: in vivo
# pulse seeds = settings: 0.1% to 1% aqueous coating; pea, chickpea, lentil, soybean
# Text: Germination on blotters was scored at 7- and 14-days. Emergence from soil was scored at 21- and 28-days.
# To treat seeds, one hundred seeds were placed in a 50-mL Falcon tube and combined with the treatment solution. Seeds were mixed with the treatment for 5-min by gently rolling and inverting the Falcon tube. Coated seeds were placed in an open Petri plate for 30-min to dry. Seeds were sown 10-per pot, set in a greenhouse, and maintained under standard conditions with mercury lamp lighting supplementing daylight from 3:00 pm to 10:00 pm.
# Place 100-seeds into a 50-mL Falcon tube and add 1-mL of treatment solution. Gently roll and invert the tube for 5 min to evenly coat each seed without causing damage. Remove seeds from tube by pouring carefully into an empty Petri plate. Leave exposed (lid off) and air dry seeds for 30 min.
# (1) Germination: Place 50 seeds from each treatment onto 25 individual moistened blotters in large Petri plates. Incubate at room temperature for 2-weeks with or without light. Score germination at 7- and 14-days. (2) Emergence: Sow 50 seeds from each treatment into five pots (10-seeds per pot and five pots per treatment). Place in a greenhouse at 22° C. with ample air circulation. Use mercury lamps to supplement lighting (on at 3:00 pm-off at 10:00 pm) if necessary. For pre-emergent plants, water pots as needed to keep soil moist but not wet. Water emergent plants daily. […]
# [2] = tested on: dry bean (Phaseolus vulgaris L) seeds, cultivar 'Othello'; assay: Germination of diseased dry bean seed under bacterial disease pressure (Experiment 1); assay type: in vivo
# Text: The precipitate is recovered by filtration and the powder is dried.
# Seeds were placed on blotters in Petri plates, were soaked in an excess of water for 3 days, then drained on day 4. The 3-day period of excess water created extremely high pressure from pathogenic and saprophytic bacteria. This led to a very high bacterial load on the germinating seeds and high disease pressure due to pathogenic, saprophytic and soft-rot bacteria. This disease pressure was so extreme that the germination rates for experiments 2-5 were essentially zero due to being overwhelmed by the disease pressure.
Compound,phytotoxicity [1],Day to 50% germination (healthy dry bean seed; 1%),Day to 50% germination (healthy dry bean seed; […]),effect on germination of pulse seeds (pulse seeds),"phytotoxicity / effect on germination of dry bean seeds ([2]; 0.1% to 1% treatments, days needed to reach 25% germination)","increase in germination compared with the negative control (sterile water) ([2]; 1% treatment, by day 10)"
O=[N+]([O-])[O-].[Ag+] [silver nitrate],phytotoxic,,,,,
oxysilver nitrate [high valency silver],,5.0 days,5.0 days,no negative effects on germination of any pulse seed,no negative effects on germination; also recorded: no phytotoxic effect on germinating seeds,34.7%
